Where “and” joins values, the source holds several entries; their conditions need not be identical. Equal entries are not always repeated. Inconclusive results are not listed.
Test system: nude mice, HT29 intrarenal xenograft, tumor weight T/C
Assay: NCI In Vivo Anticancer Drug Screen. Data for tumor model HT29;CX-1 Human Adenocarcinoma (MER+) (intrarenal inoculation) in NU/NU Swiss (nude) mice
Conditions: endpoint: mean tumor weight change, higher = larger tumour
Method in brief: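 T/C = treated-group value ÷ vehicle-group value, using tumor size or survival.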

[1] = dose: 200.0 mg/kg/injection, schedule: Q01DX010 (sc), vehicle: saline with Tween-80
[2] = dose: 400.0 mg/kg/injection, schedule: Q01DX010 (sc), vehicle: saline with Tween-80
[3] = dose: 800.0 mg/kg/injection, schedule: Q01DX010 (sc), vehicle: saline with Tween-80
[4] = dose: 100.0 mg/kg/injection, schedule: Q04DX004 (sc), vehicle: saline
[5] = dose: 200.0 mg/kg/injection, schedule: Q04DX004 (sc), vehicle: saline
[6] = dose: 200.0 mg/kg/injection, schedule: Q04DX004 (sc), vehicle: suspension in saline
[7] = dose: 400.0 mg/kg/injection, schedule: Q04DX004 (sc), vehicle: saline
[8] = dose: 800.0 mg/kg/injection, schedule: Q04DX004 (sc), vehicle: suspension in saline
[9] = dose: 75.0 mg/kg/injection, schedule: Q04DX004 (sc), vehicle: Klucel (hydroxypropylcellulose) (HPC)
[10] = dose: 150.0 mg/kg/injection, schedule: Q04DX004 (sc), vehicle: Klucel (hydroxypropylcellulose) (HPC)
[11] = dose: 300.0 mg/kg/injection, schedule: Q04DX004 (sc), vehicle: Klucel (hydroxypropylcellulose) (HPC)
[12] = dose: 300.0 mg/kg/injection, schedule: Q04DX004 (sc), vehicle: saline with Tween-80
[13] = dose: 600.0 mg/kg/injection, schedule: Q04DX004 (sc), vehicle: saline with Tween-80
[14] = dose: 1200.0 mg/kg/injection, schedule: Q04DX004 (sc), vehicle: saline with Tween-80
[15] = dose: 100.0 mg/kg/injection, schedule: Q04DX004 (sc), vehicle: suspension in saline
[16] = dose: 400.0 mg/kg/injection, schedule: Q04DX004 (sc), vehicle: suspension in saline

`O=C(N/N=C\c1cc(Br)cc(Br)c1O)N/N=C/c1cc(Br)cc(Br)c1O` was tested, and the T/C [1] was 71 % of control and 94 % of control, the T/C [2] was 43 % of control and 56 % of control and the T/C [3] was 76 % of control.
For `CCCCCCCCCCCCCCCCCCCCCC(=O)Nc1ccn(C2OC(CO)C(O)C2O)c(=O)n1` (stereo not given), the T/C (dose: 225.0 mg/kg/injection, schedule: Q04DX004 (sc), vehicle: saline with Tween-80) was 65 % of control, the T/C (dose: 450.0 mg/kg/injection, schedule: Q04DX004 (sc), vehicle: saline with Tween-80) was 88 % of control and the T/C (dose: 900.0 mg/kg/injection, schedule: Q04DX004 (sc), vehicle: saline with Tween-80) was 64 % of control. For the same compound, the T/C (dose: 1800.0 mg/kg/injection, schedule: Q04DX004 (sc), vehicle: saline with Tween-80) was 72 % of control.
In the case of `Nc1ncn(C2OC(CO)C(O)C2O)c(=O)n1` (stereo not given), the T/C (dose: 0.19 mg/kg/injection, schedule: Q01DX010 (sc), vehicle: saline) is reported as 212 % of control, the T/C (dose: 0.38 mg/kg/injection, schedule: Q01DX010 (sc), vehicle: saline) is reported as 172 % of control and the T/C (dose: 0.75 mg/kg/injection, schedule: Q01DX010 (sc), vehicle: saline) is reported as 96 % of control. The T/C (dose: 5.0 mg/kg/injection, schedule: Q04DX004 (sc), vehicle: saline) was 66 % of control, the T/C (dose: 10.0 mg/kg/injection, schedule: Q04DX004 (sc), vehicle: saline) was 48 % of control and 49 % of control and the T/C [4] was 62 % of control. For the same compound, the T/C [5] was 85 % of control, the T/C [6] was 98 % of control and the T/C (dose: 300.0 mg/kg/injection, schedule: Q04DX004 (sc), vehicle: suspension in saline) was 24 % of control. For the same compound, the T/C [7] was 38 % of control, the T/C (dose: 600.0 mg/kg/injection, schedule: Q04DX004 (sc), vehicle: suspension in saline) was 79 % of control and the T/C (dose: 800.0 mg/kg/injection, schedule: Q04DX004 (sc), vehicle: saline) was 7 % of control. For the same compound, the T/C [8] was 29 % of control and 30 % of control, the T/C (dose: 1200.0 mg/kg/injection, schedule: Q04DX004 (sc), vehicle: suspension in saline) was 7 % of control and the T/C (dose: 1600.0 mg/kg/injection, schedule: Q04DX004 (sc), vehicle: suspension in saline) was 11 % of control.
With `Nc1ncnc2c(C3OC(CO)C(O)C3O)[nH]nc12` (stereo not given) the T/C (dose: 75.0 mg/kg/injection, schedule: Q04DX004 (sc), vehicle: suspension in saline) was 39 % of control.
`Cc1nn(CCO)c(C)c1N=[N+]([O-])c1c(C)nn(CCO)c1C` was tested, and the T/C [9] was 68 % of control, the T/C [10] was 70 % of control and the T/C [11] was 44 % of control. For the same compound, the T/C (dose: 600.0 mg/kg/injection, schedule: Q04DX004 (sc), vehicle: Klucel (hydroxypropylcellulose) (HPC)) was 53 % of control and the T/C (dose: 1200.0 mg/kg/injection, schedule: Q04DX004 (sc), vehicle: Klucel (hydroxypropylcellulose) (HPC)) was 102 % of control.
In the case of `Cc1cc2cc3cc(C)c(N)cc3nc2cc1N`, the T/C (dose: 50.0 mg/kg/injection, schedule: Q04DX004 (sc), vehicle: saline with Tween-80) is reported as 86 % of control, the T/C (dose: 100.0 mg/kg/injection, schedule: Q04DX004 (sc), vehicle: saline with Tween-80) is reported as 90 % of control and the T/C (dose: 200.0 mg/kg/injection, schedule: Q04DX004 (sc), vehicle: saline with Tween-80) is reported as 82 % of control. For the same compound, the T/C [12] was 89 % of control, the T/C (dose: 400.0 mg/kg/injection, schedule: Q04DX004 (sc), vehicle: saline with Tween-80) was 66 % of control and the T/C [13] was 21 % of control. The T/C [14] was 37 % of control and the T/C (dose: 2400.0 mg/kg/injection, schedule: Q04DX004 (sc), vehicle: saline with Tween-80) was 45 % of control.
For `NC(=S)N/N=C/c1ccc(OC(=O)COc2ccc(Cl)cc2)cn1`, the T/C [12] was 103 % of control and the T/C [13] was 150 % of control.
In the case of `O=[N+]([O-])O.[Ga]`, the T/C (dose: 50.0 mg/kg/injection, schedule: Q04DX004 (sc), vehicle: saline) is reported as 99 % of control, the T/C [4] is reported as 66 % of control and the T/C [5] is reported as 80 % of control. For the same compound, the T/C [7] was 103 % of control.
In the case of `O=C1c2c(O)ccc(O)c2C(=O)c2c(NCCNCCO)ccc(NCCNCCO)c21`, the T/C (dose: 0.13 mg/kg/injection, schedule: Q01DX010 (sc), vehicle: acid diluted with saline) is reported as 89 % of control, the T/C (dose: 0.25 mg/kg/injection, schedule: Q01DX010 (sc), vehicle: acid diluted with saline) is reported as 75 % of control and the T/C (dose: 2.5 mg/kg/injection, schedule: Q04DX004 (sc), vehicle: water) is reported as 73 % of control. The T/C (dose: 5.0 mg/kg/injection, schedule: Q04DX004 (sc), vehicle: water) was 104 % of control and the T/C (dose: 10.0 mg/kg/injection, schedule: Q04DX004 (sc), vehicle: water) was 76 % of control.
`Cc1cn(C2CC(F)C(CO)O2)c(=O)[nH]c1=O` (stereo not given) was tested, and the T/C [15] was 65 % of control, the T/C [6] was 60 % of control and the T/C [16] was 117 % of control. For the same compound, the T/C [8] was 74 % of control.
With `CS(=O)(=O)c1ncc(Br)cn1` the T/C (dose: 62.5 mg/kg/injection, schedule: Q04DX004 (sc), vehicle: saline) was 83 % of control, the T/C (dose: 75.0 mg/kg/injection, schedule: Q04DX004 (sc), vehicle: saline with Tween-80) was 99 % of control and the T/C (dose: 125.0 mg/kg/injection, schedule: Q04DX004 (sc), vehicle: saline) was 109 % of control. The T/C (dose: 150.0 mg/kg/injection, schedule: Q04DX004 (sc), vehicle: saline with Tween-80) was 109 % of control, the T/C (dose: 250.0 mg/kg/injection, schedule: Q04DX004 (sc), vehicle: saline) was 92 % of control and the T/C [12] was 57 % of control. For the same compound, the T/C (dose: 500.0 mg/kg/injection, schedule: Q04DX004 (sc), vehicle: saline) was 89 % of control.
With `COC1=NCN=C2SC=C(N)N=C12` the T/C (dose: 37.5 mg/kg/injection, schedule: Q04DX004 (sc), vehicle: saline) was 86 % of control, the T/C (dose: 75.0 mg/kg/injection, schedule: Q04DX004 (sc), vehicle: saline) was 70 % of control and the T/C (dose: 150.0 mg/kg/injection, schedule: Q04DX004 (sc), vehicle: saline) was 73 % of control.
For `COc1ccc2cc1Oc1ccc(cc1)C[C@H]1c3cc(c(OC)cc3CCN1C)Oc1c(OC)c(OC)cc3c1[C@H](C2)N(C)CC3`, the T/C (dose: 100.0 mg/kg/injection, schedule: Q01DX010 (sc), vehicle: saline with Tween-80) was 102 % of control, the T/C [1] was 33 % of control and the T/C [2] was 28 % of control. For the same compound, the T/C [3] was 27 % of control.
In the case of `O=C1SC(c2ccccc2)=S=C1c1ccccc1`, the T/C [12] is reported as 102 % of control and the T/C [14] is reported as 90 % of control.
`O=S(=O)(O)O` was tested, and the T/C [9] was 86 % of control, the T/C [10] was 116 % of control and the T/C [11] was 65 % of control.
For `CC1(O)CC23CC(O)C4(O)C(CC(O)C4(C)C)C(C)(O)C2CCC1C3O` (stereo not given), the T/C (dose: 0.25 mg/kg/injection, schedule: Q04DX004 (sc), vehicle: Klucel (hydroxypropylcellulose) (HPC)) was 46 % of control, the T/C (dose: 0.5 mg/kg/injection, schedule: Q04DX004 (sc), vehicle: Klucel (hydroxypropylcellulose) (HPC)) was 37 % of control and the T/C (dose: 1.0 mg/kg/injection, schedule: Q04DX004 (sc), vehicle: Klucel (hydroxypropylcellulose) (HPC)) was 82 % of control.
`NC(=O)Oc1cccc(OC(N)=O)c1` was tested, and the T/C (dose: 50.0 mg/kg/injection, schedule: Q04DX004 (sc), vehicle: suspension in saline) was 110 % of control, the T/C [15] was 102 % of control and the T/C [6] was 29 % of control. The T/C [16] was 62 % of control.
`CNc1nc(N(C)C)nc(N(C)C)n1` was tested, and the T/C (dose: 12.5 mg/kg/injection, schedule: Q04DX004 (sc), vehicle: water) was 54 % of control, the T/C (dose: 15.0 mg/kg/injection, schedule: Q01DX010 (sc), vehicle: water) was 89 % of control and the T/C (dose: 25.0 mg/kg/injection, schedule: Q04DX004 (sc), vehicle: water) was 75 % of control. The T/C (dose: 50.0 mg/kg/injection, schedule: Q04DX004 (sc), vehicle: water) was 51 % of control and the T/C (dose: 100.0 mg/kg/injection, schedule: Q04DX004 (sc), vehicle: water) was 51 % of control.
With `C1CN2CCC1CC2` the T/C (dose: 9.38 mg/kg/injection, schedule: Q04DX004 (sc), vehicle: saline with Tween-80) was 65 % of control and the T/C (dose: 18.75 mg/kg/injection, schedule: Q04DX004 (sc), vehicle: saline with Tween-80) was 82 % of control.
With `CC1=CC2C(O)(CC(CO)=CC3C4C(C)(C)C4(OC(=O)c4ccccc4)C(OC(=O)c4ccccc4)C(C)C32O)C1=O` (stereo not given) the T/C (dose: 5.0 mg/kg/injection, schedule: Q04DX004 (sc), vehicle: saline with Tween-80) was 43 % of control.
